Here are results for eleven compounds from article PMC3269786 (Neuron, 2012).

One test concerns rats. To be noted: 6 day central infusion, ref Petersen et al., 2009; cited from earlier work.
For a further test, the target named is GHSR1a + DRD2 (Homo sapiens, UniProt P14416+Q92847). Format: cell-based.
The test system of test [1] is mice (ghsr+/+, ghsr−/−, ghrelin+/+, ghrelin−/−). Nature of the test: Food intake experiments in mice. Format: in vivo, mouse. To be noted: for food intake compared to vehicle: 0.5 mg/kg i.p.
A further test addresses SNAP-F279L-GHSR1a (UniProt Q92847). Nature of the test: FRET or BRET. (In general: In BRET a luciferase serves as donor, and the signal depends on an acceptor being close.)
The target in test [2] is SNAP-GHSR1a (growth hormone secretagogue receptor / ghrelin receptor with a SNAP-tag at the N-terminus) (UniProt Q92847). The experiment in a line: FRET or BRET.
Sequence of SNAP-GHSR1a (growth hormone secretagogue receptor / ghrelin receptor with a SNAP-tag at the N-terminus) (Q92847 whole entry): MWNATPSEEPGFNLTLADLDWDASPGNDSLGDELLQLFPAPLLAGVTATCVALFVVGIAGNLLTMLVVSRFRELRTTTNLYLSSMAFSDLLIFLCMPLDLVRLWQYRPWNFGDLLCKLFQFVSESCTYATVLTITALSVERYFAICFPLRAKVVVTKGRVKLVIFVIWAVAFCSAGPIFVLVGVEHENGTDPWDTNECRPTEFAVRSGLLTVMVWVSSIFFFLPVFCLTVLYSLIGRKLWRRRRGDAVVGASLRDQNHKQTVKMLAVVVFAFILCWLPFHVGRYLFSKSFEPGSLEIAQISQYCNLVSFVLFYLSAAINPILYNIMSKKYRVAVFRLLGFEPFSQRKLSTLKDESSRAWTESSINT
The next test has as its target SNAP-M213K-GHSR1a (UniProt Q92847). Nature of the test: FRET or BRET.
The test system of another test is humans. To be noted: ref Korner et al., 2003; cited from earlier work.
A further test addresses SNAP-GHSR1a (Homo sapiens, UniProt Q92847). The experiment in a line: Tr-FRET red-ghrelin binding assay in HEK293 cells expressing SNAP-GHSR1a.
In test [3] the target is GHSR1a and DRD2 co-expressed in SH-SY5Y cells (SH-GHSR1a) (Homo sapiens, UniProt P14416+Q92847). Format: cell-based. To be noted: quinpirole 10 µM; pretreatment 5 min.
Sequence of GHSR1a and DRD2 co-expressed in SH-SY5Y cells (SH-GHSR1a) (Q92847 whole entry): as above
Sequence of GHSR1a and DRD2 co-expressed in SH-SY5Y cells (SH-GHSR1a) (P14416 whole entry): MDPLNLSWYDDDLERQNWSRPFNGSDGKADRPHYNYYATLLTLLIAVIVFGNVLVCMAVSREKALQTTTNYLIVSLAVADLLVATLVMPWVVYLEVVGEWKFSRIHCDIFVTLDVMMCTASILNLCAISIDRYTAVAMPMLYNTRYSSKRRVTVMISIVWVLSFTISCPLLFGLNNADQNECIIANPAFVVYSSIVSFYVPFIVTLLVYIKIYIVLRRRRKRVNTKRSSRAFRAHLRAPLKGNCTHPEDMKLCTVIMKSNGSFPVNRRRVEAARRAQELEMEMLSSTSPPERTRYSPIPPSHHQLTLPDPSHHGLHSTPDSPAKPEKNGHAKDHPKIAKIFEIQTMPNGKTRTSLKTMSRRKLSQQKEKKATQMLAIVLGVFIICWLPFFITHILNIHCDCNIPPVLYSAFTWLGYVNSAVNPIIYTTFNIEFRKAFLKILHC
In test [4] the test system is primary cultures of hypothalamic neurons. Nature of the test: Fluo-4 Ca2+ mobilization in primary hypothalamic neurons. In kind it is cell-based, mouse. To be noted: quinpirole 10 µM; ghrelin 100 nM after washing.

Sequence of GHSR1a + DRD2 (Q92847 whole entry): as the sequence (Q92847 whole entry) above
Sequence of GHSR1a + DRD2 (P14416 whole entry): as the sequence (P14416 whole entry) above
Sequence of HA-CLIP-DRD2 (P14416 whole entry): as above
Sequence of SNAP-F279L-GHSR1a (Q92847 whole entry F279L): as the sequence (Q92847 whole entry) above, with F279L counted along it
Sequence of SNAP-M213K-GHSR1a (Q92847 whole entry M213K): as the sequence (Q92847 whole entry) above, with M213K counted along it
Sequence of SNAP-GHSR1a (Q92847 whole entry): as the sequence (Q92847 whole entry) above

As for “[D-Arg1,D-Phe5,D-Trp7,9,Leu11]-substance P”, the “food intake and weight gain” value with rats was “modest reductions in food intake and weight gain”.

For the compound `Oc1cc2c(c(Cl)c1O)CCNCC2c1ccccc1` (stereo not drawn) [SKF81297], the “effect of preincubation on ghrelin-induced Ca2+ response” value at GHSR1a + DRD2 (30 min preincubation, ghrelin 100 nM) is “fails to inhibit”.

In the case of JMV2959, in test [1] (ghsr+/+ mice, JMV2959 0.2 mg/kg i.p. 30 min before cabergoline 0.5 mg/kg), the “effect on cabergoline-induced suppression of food intake” value is listed as “prevented”. Besides, the “effect on food intake in cabergoline treated mice” value in [1] (ghsr−/− mice, JMV2959 0.2 mg/kg i.p. 30 min before cabergoline 0.5 mg/kg) is recorded as “unaffected”.

On to `CCN1CCCC1CNC(=O)c1cc(S(N)(=O)=O)ccc1OC` (stereo not drawn) [sulpiride], for which the “effect on dopamine-induced Ca2+ signaling” value on GHSR1a + DRD2 is on record as “dose-dependently inhibited”. The “effect on ghrelin-induced Ca2+ mobilization” value at GHSR1a + DRD2 (GHSR1a+DRD2 cells, ghrelin 100 nM) was “partially inhibited”.

For “HA-CLIP-DRD2 (from UniProt P14416 1-443) (receptor)”, the FRET50 was found to be 0.49 with SNAP-F279L-GHSR1a, 0.086 in test [2] and 0.79 in the test with SNAP-M213K-GHSR1a.

`C=CCN1C[C@H](C(=O)N(CCCN(C)C)C(=O)NCC)C[C@@H]2c3cccc4[nH]cc(c34)C[C@H]21` [cabergoline]: on GHSR1a + DRD2 (cells co-expressing GHSR1a + DRD2), the “agonist-induced increase of [Ca2+]i” value was “dose-dependent mobilization of Ca^2+”. Further, the “food intake compared to vehicle” value in [1] (ghrelin+/+ and ghrelin−/− mice) is listed as “significantly reduced food intake irrespective of genotype”; in test [1] (ghsr+/+ mice, within 2 h), “markedly reduced”; in test [1] (ghsr−/− mice) it was “unaffected”. Besides, the food intake entry in [1] (mice, cabergoline 0.5 mg/kg and 2 mg/kg) is “dose dependent suppression of food intake”. The “body weight in treated humans” value with humans was “weight loss”.

For the compound des-acyl ghrelin, on SNAP-GHSR1a, the “inhibition of red ghrelin binding” value was “ineffective”.

Take `CCN1CCC[C@H]1CNC(=O)c1c(O)c(Cl)cc(Cl)c1OC` [raclopride]: the “effect on quinpirole-induced Ca2+ signal” value in test [3] is reported as “Attenuation of the Ca^2+ signal”. The “effect on dopamine-induced Ca2+ signaling” value at GHSR1a + DRD2 is recorded as “dose-dependently inhibited”.

With `CN1CCc2cc(Cl)c(O)cc2[C@@H](c2ccccc2)C1` [SCH23390], the “effect on dopamine-induced Ca2+ signaling” value at GHSR1a + DRD2 is “ineffective”.

Regarding `CCCCCCCC(=O)OC[C@H](NC(=O)[C@H](CO)NC(=O)CN)C(=O)N[C@@H](Cc1ccccc1)C(=O)N[C@@H](CC(C)C)C(=O)N[C@@H](CO)C(=O)N1CCC[C@H]1C(=O)N[C@@H](CCC(=O)O)C(=O)N[C@@H](Cc1c[nH]cn1)C(=O)N[C@@H](CCC(N)=O)C(=O)N[C@@H](CCCNC(=N)N)C(=O)N[C@H](C(=O)N[C@@H](CCC(N)=O)C(=O)N[C@@H](CCC(N)=O)C(=O)N[C@@H](CCCNC(=N)N)C(=O)N[C@@H](CCCCN)C(=O)N[C@@H](CCC(=O)O)C(=O)N[C@@H](CO)C(=O)N[C@@H](CCCCN)C(=O)N[C@@H](CCCCN)C(=O)N1CCC[C@H]1C(=O)N1CCC[C@H]1C(=O)N[C@@H](C)C(=O)N[C@@H](CCCCN)C(=O)N[C@@H](CC(C)C)C(=O)N[C@@H](CCC(N)=O)C(=O)N1CCC[C@H]1C(=O)N[C@@H](CCCNC(=N)N)C(=O)O)C(C)C` [ghrelin], in [4], the “Ca2+ response in primary hypothalamic neurons” value is “immediate Ca^2+ response”.

Regarding `NCCOB(c1ccccc1)c1ccccc1` [2-aminoethoxydiphenyl borate], the “effect on dopamine-induced Ca2+ signaling” value at GHSR1a + DRD2 is recorded as “blocked”.
